Results: PubChem BioAssay (NCI)
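Interpolation was linear, between the two tested concentrations surrounding the appropriate level; five concentrations were tested over 48 hours in 96-well plates. Definition used: TGI = concentration required for complete inhibition of growth.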

How the values were obtained:
Test in all cases: NCI-60 cell line screen, 48 h
MALME-3M melanoma = test system: MALME-3M melanoma
MDA-MB-231 breast = test system: MDA-MB-231 breast
SNB-19 CNS = test system: SNB-19 CNS
K-562 leukemia = test system: K-562 leukemia
SW-620 colon = test system: SW-620 colon
OVCAR-5 ovarian = test system: OVCAR-5 ovarian
MCF7 breast = test system: MCF7 breast
HT29 colon = test system: HT29 colon
CCRF-CEM leukemia = test system: CCRF-CEM leukemia
COLO 205 colon = test system: COLO 205 colon
RPMI-8226 leukemia = test system: RPMI-8226 leukemia
SK-OV-3 ovarian = test system: SK-OV-3 ovarian
RXF 393 renal = test system: RXF 393 renal
EKVX NSCLC = test system: EKVX NSCLC
ACHN renal = test system: ACHN renal
BT-549 breast = test system: BT-549 breast
SK-MEL-2 melanoma = test system: SK-MEL-2 melanoma
IGROV1 ovarian = test system: IGROV1 ovarian
MOLT-4 leukemia = test system: MOLT-4 leukemia
LOX IMVI melanoma = test system: LOX IMVI melanoma
MDA-MB-435 = test system: MDA-MB-435
A549 NSCLC = test system: A549 NSCLC
UO-31 renal = test system: UO-31 renal
SK-MEL-5 melanoma = test system: SK-MEL-5 melanoma
NCI-H226 lung = test system: NCI-H226 lung
SF-539 CNS = test system: SF-539 CNS
SF-268 CNS = test system: SF-268 CNS
PC-3 prostate = test system: PC-3 prostate
SK-MEL-28 melanoma = test system: SK-MEL-28 melanoma
OVCAR-8 ovarian = test system: OVCAR-8 ovarian
HL-60(TB) leukemia = test system: HL-60(TB) leukemia
U251 CNS = test system: U251 CNS
CAKI-1 renal = test system: CAKI-1 renal
HOP-92 NSCLC = test system: HOP-92 NSCLC
M14 melanoma = test system: M14 melanoma
SF-295 CNS = test system: SF-295 CNS
OVCAR-4 ovarian = test system: OVCAR-4 ovarian
DU-145 prostate = test system: DU-145 prostate
SR leukemia = test system: SR leukemia
HCT-15 colon = test system: HCT-15 colon
OVCAR-3 ovarian = test system: OVCAR-3 ovarian
NCI/ADR-RES ovarian = test system: NCI/ADR-RES ovarian
SN12C renal = test system: SN12C renal
T-47D breast = test system: T-47D breast
UACC-257 melanoma = test system: UACC-257 melanoma
HS 578T breast = test system: HS 578T breast
A498 renal = test system: A498 renal
UACC-62 melanoma = test system: UACC-62 melanoma
HCT-116 colon = test system: HCT-116 colon
HCC-2998 colon = test system: HCC-2998 colon
MDA-N = test system: MDA-N
NCI-H23 lung = test system: NCI-H23 lung
KM12 colon = test system: KM12 colon
SNB-75 CNS = test system: SNB-75 CNS
NCI-H460 lung = test system: NCI-H460 lung
786-0 renal = test system: 786-0 renal
NCI-H522 lung = test system: NCI-H522 lung
TK-10 renal = test system: TK-10 renal
HOP-62 NSCLC = test system: HOP-62 NSCLC

CCOc1ccc2nc(NC(=O)/C(CC(=O)CC(C3=C(O)c4ccccc4CC3=O)c3ccccc3)=N\O)sc2c1 (stereo not drawn)
TGI (MALME-3M melanoma): > 100 µM | TGI (MDA-MB-231 breast): > 100 µM | TGI (SNB-19 CNS): > 100 µM | TGI (K-562 leukemia): > 100 µM | TGI (SW-620 colon): > 100 µM | TGI (OVCAR-5 ovarian): > 100 µM | TGI (MCF7 breast): > 100 µM | TGI (HT29 colon): > 100 µM | TGI (CCRF-CEM leukemia): > 100 µM | TGI (COLO 205 colon): > 100 µM | TGI (RPMI-8226 leukemia): > 100 µM | TGI (SK-OV-3 ovarian): > 100 µM | TGI (RXF 393 renal): > 100 µM | TGI (EKVX NSCLC): > 100 µM | TGI (ACHN renal): > 100 µM | TGI (BT-549 breast): > 100 µM | TGI (SK-MEL-2 melanoma): > 100 µM | TGI (IGROV1 ovarian): > 100 µM | TGI (MOLT-4 leukemia): > 100 µM | TGI (LOX IMVI melanoma): > 100 µM | TGI (MDA-MB-435): > 100 µM | TGI (A549 NSCLC): > 100 µM | TGI (UO-31 renal): > 100 µM | TGI (SK-MEL-5 melanoma): > 100 µM | TGI (NCI-H226 lung): > 100 µM | TGI (SF-539 CNS): > 100 µM | TGI (SF-268 CNS): > 100 µM | TGI (PC-3 prostate): > 100 µM | TGI (SK-MEL-28 melanoma): > 100 µM | TGI (OVCAR-8 ovarian): > 100 µM | TGI (HL-60(TB) leukemia): > 100 µM | TGI (U251 CNS): > 100 µM | TGI (CAKI-1 renal): > 100 µM | TGI (HOP-92 NSCLC): > 100 µM | TGI (M14 melanoma): > 100 µM | TGI (SF-295 CNS): > 100 µM | TGI (OVCAR-4 ovarian): > 100 µM | TGI (DU-145 prostate): > 100 µM | TGI (SR leukemia): > 100 µM | TGI (HCT-15 colon): > 100 µM | TGI (OVCAR-3 ovarian): > 100 µM | TGI (NCI/ADR-RES ovarian): > 100 µM | TGI (SN12C renal): > 100 µM | TGI (T-47D breast): > 100 µM | TGI (UACC-257 melanoma): > 100 µM | TGI (HS 578T breast): > 100 µM | TGI (A498 renal): > 100 µM | TGI (UACC-62 melanoma): > 100 µM | TGI (HCT-116 colon): > 100 µM | TGI (HCC-2998 colon): > 100 µM | TGI (MDA-N): > 100 µM | TGI (NCI-H23 lung): > 100 µM | TGI (KM12 colon): > 100 µM | TGI (SNB-75 CNS): > 100 µM | TGI (NCI-H460 lung): > 100 µM | TGI (786-0 renal): > 100 µM | TGI (NCI-H522 lung): > 100 µM

Brc1ccc2c3c1[C@@H]1O[C@@H]1c1cccc(c1-3)[C@@H]1O[C@H]21
TGI (MALME-3M melanoma): 41.6 µM | TGI (MDA-MB-231 breast): 65.8 µM | TGI (SNB-19 CNS): 60.9 µM | TGI (K-562 leukemia): > 100 µM | TGI (SW-620 colon): 46.9 µM | TGI (OVCAR-5 ovarian): 34.3 µM | TGI (MCF7 breast): > 100 µM | TGI (HT29 colon): 53.3 µM | TGI (CCRF-CEM leukemia): > 100 µM | TGI (COLO 205 colon): 52.2 µM | TGI (RPMI-8226 leukemia): > 100 µM | TGI (SK-OV-3 ovarian): > 71.2 µM | TGI (RXF 393 renal): 32.3 µM | TGI (EKVX NSCLC): 39.4 µM | TGI (ACHN renal): 67.1 µM | TGI (BT-549 breast): 43.2 µM | TGI (SK-MEL-2 melanoma): > 71.5 µM | TGI (MOLT-4 leukemia): > 100 µM | TGI (TK-10 renal): > 100 µM | TGI (LOX IMVI melanoma): 6.86 µM | TGI (MDA-MB-435): 48.3 µM | TGI (A549 NSCLC): > 92.1 µM | TGI (HOP-62 NSCLC): 43.1 µM | TGI (UO-31 renal): 43.8 µM | TGI (SK-MEL-5 melanoma): 33.4 µM | TGI (NCI-H226 lung): > 100 µM | TGI (SF-539 CNS): 16.5 µM | TGI (SF-268 CNS): 63.1 µM | TGI (PC-3 prostate): > 71.7 µM | TGI (SK-MEL-28 melanoma): 50.3 µM | TGI (OVCAR-8 ovarian): 30.8 µM | TGI (HL-60(TB) leukemia): 66.5 µM | TGI (U251 CNS): 40.2 µM | TGI (CAKI-1 renal): 26.4 µM | TGI (HOP-92 NSCLC): 43.5 µM | TGI (M14 melanoma): 35.5 µM | TGI (SF-295 CNS): 46 µM | TGI (OVCAR-4 ovarian): 41.3 µM | TGI (DU-145 prostate): > 72.5 µM | TGI (SR leukemia): > 100 µM | TGI (HCT-15 colon): 49.8 µM | TGI (OVCAR-3 ovarian): 52.6 µM | TGI (NCI/ADR-RES ovarian): 45.4 µM | TGI (SN12C renal): 45.9 µM | TGI (T-47D breast): 45 µM | TGI (UACC-257 melanoma): 98.4 µM | TGI (HS 578T breast): 80.8 µM | TGI (A498 renal): > 69.1 µM | TGI (UACC-62 melanoma): 35.4 µM | TGI (HCT-116 colon): 45.7 µM | TGI (MDA-N): 53.5 µM | TGI (NCI-H23 lung): 33.7 µM | TGI (KM12 colon): 36 µM | TGI (SNB-75 CNS): 45.2 µM | TGI (786-0 renal): 51.1 µM | TGI (NCI-H522 lung): 31.4 µM
